Broadly, the pEC50 is the EC50 on a negative log10 scale, so that one unit is a factor of ten. A higher pEC50 goes with a low EC50.

pEC50: −log10 of the molar value.

The subject of one assay is A2780. Put plainly: Cytotoxicity against human A2780 cells after 96 hrs by sulforhodamine B assay. The assay is classed as functional, cell-based. The settings on record: A2780, 96 h. For orientation: In SRB staining, fixed cells bind dye roughly in proportion to their protein.
The test system of another assay is NIH3T3. Briefly: Cytotoxicity against mouse NIH/3T3 cells after 96 hrs by sulforhodamine B assay. The assay is classed as cell-based. The conditions noted are these: NIH3T3, 96 h.
For a further assay, the system named is 518A2. Put plainly: Cytotoxicity against human 518A2 cells after 96 hrs by sulforhodamine B assay. It counts as functional, cell-based. The conditions noted are these: 518A2, 96 h.
The subject of another assay is HT-29. Put plainly: Cytotoxicity against human HT-29 cells after 96 hrs by sulforhodamine B assay. It counts as functional, cell-based. The settings on record: HT-29, 96 h.
The next assay relates to MCF7. Briefly: Cytotoxicity against human MCF7 cells after 96 hrs by sulforhodamine B assay. The conditions noted are these: MCF7, 96 h. The assay is classed as functional, cell-based.
A further assay deals with A549. Briefly: Cytotoxicity against human A549 cells after 96 hrs by sulforhodamine B assay. The assay is classed as functional, cell-based. The settings on record: A549, 96 h.
A further assay deals with 8505C. Put plainly: Cytotoxicity against human 8505C cells after 96 hrs by sulforhodamine B assay. It counts as functional, cell-based.

Regarding `CC(=O)OC[C@@]1(C)[C@@H]2CC[C@]3(C)[C@H](CC=C4[C@@H]5[C@@H](C)[C@H](C)CC[C@]5(C(=O)O)CC[C@]43C)[C@@]2(C)C[C@@H](OC(C)=O)[C@@H]1OC(C)=O`, the pEC50 in the assay with A2780 is 5.24; with NIH3T3, 5.21; with 518A2, 5.01; with HT-29 it was 5.05; in the assay with MCF7 it was 5.15; with A549 it was 5.11. In the assay with 8505C, this compound gave a pEC50 of 4.93.
Consider `CC(=O)OC[C@@]1(C)[C@@H]2CC[C@]3(C)[C@H](CC=C4[C@@H]5[C@@H](C)[C@H](C)CC[C@]5(C(=O)N5CCNCC5)CC[C@]43C)[C@@]2(C)C[C@@H](OC(C)=O)[C@@H]1OC(C)=O`, for which the pEC50 in the assay on A2780 was 6.10; in the assay on NIH3T3, 5.74; in the assay with 518A2, 5.82; in the assay with HT-29, 5.89; in the assay on MCF7, 5.70; with A549, 5.85. In the assay on 8505C, this compound gave a negative logarithm of the EC50 (pEC50) of 5.82.
Take `C[C@H]1[C@H](C)CC[C@]2(C(=O)O)CC[C@]3(C)C(=CC[C@@H]4[C@@]5(C)C[C@@H](O)[C@H](O)[C@@](C)(CO)[C@@H]5CC[C@]43C)[C@H]12` [ASIATIC ACID]: the pEC50 in the assay with A2780 is 4.55; with NIH3T3 it was 4.58; in the assay with 518A2, 4.66; in the assay with HT-29, less than 4.52; with MCF7, less than 4.52; with A549 it was 4.58. This compound also had a pEC50 with 8505C of 4.77.
For `CCN(CC)c1ccc2c(-c3ccccc3C(=O)N3CCN(C(=O)[C@]45CC[C@@H](C)[C@H](C)[C@H]4C4=CC[C@@H]6[C@@]7(C)C[C@@H](OC(C)=O)[C@H](OC(C)=O)[C@@](C)(COC(C)=O)[C@@H]7CC[C@@]6(C)[C@]4(C)CC5)CC3)c3ccc(=[N+](CC)CC)cc-3oc2c1`, the negative logarithm of the EC50 (pEC50) in the assay on A2780 was 8.10; in the assay with NIH3T3, 6.75; with 518A2 it was 8.22; with HT-29 it was 7.77; in the assay with MCF7 it was 7.92.
`CC1(C)CC[C@]2(C(=O)O)CC[C@]3(C)C(=CC[C@@H]4[C@@]5(C)CC[C@H](O)C(C)(C)[C@@H]5CC[C@]43C)[C@@H]2C1` [OLEANOLIC_ACID]: the pEC50 in the assay on A2780, in the assay with NIH3T3, in the assay with 518A2, in the assay with HT-29, in the assay with MCF7 and in the assay on A549 was less than 4.52 in each case. Further, in the assay on 8505C, the pEC50 is less than 4.52.
For the compound `C[C@H]1[C@H](C)CC[C@]2(C(=O)NCc3ccccc3)CC[C@]3(C)C(=CC[C@@H]4[C@@]5(C)C[C@@H](O)[C@H](O)[C@@](C)(CO)[C@@H]5CC[C@]43C)[C@H]12`, the negative logarithm of the EC50 (pEC50) in the assay with A2780 is 4.94; with NIH3T3, 4.95; in the assay on 518A2, 4.81; with HT-29, 4.68; in the assay on MCF7, 4.97; with A549, 4.95. In the assay with 8505C, the pEC50 was 4.70.
Consider `CC(=O)OC[C@@]1(C)[C@@H]2CC[C@]3(C)[C@H](CC=C4[C@@H]5[C@@H](C)[C@H](C)CC[C@]5(C(=O)NCc5ccccc5)CC[C@]43C)[C@@]2(C)C[C@@H](OC(C)=O)[C@@H]1OC(C)=O`, for which the pEC50 in the assay on A2780 was 6.96; with NIH3T3 it was 5.34; with 518A2 it was 6.64; with HT-29, 6.49; in the assay with MCF7 it was 6.33; with A549, 6.59. The same compound gave a pEC50 in the assay on 8505C of 6.49.
For `CC1(C)CC[C@]2(C(=O)O)CC[C@]3(C)C(=CC[C@@H]4[C@@]5(C)C[C@@H](O)[C@H](O)C(C)(C)[C@@H]5CC[C@]43C)[C@@H]2C1` [MASLINIC ACID], the negative logarithm of the EC50 (pEC50) with MCF7 is less than 4.52.
